Legend:
[1] = Solubility in organic solvents; type: physicochemical; conditions: 25° C., amount of solute (g) based on 100 ml of solvent
Protocol: The solubility of Synthesis Examples 1 to 3 and Synthesis Comparative Example 1 in organic solvents (1,2-dichloroethane, toluene and tetrahydrofuran) at 25° C. was measured. The solubility was indicated by the amount of solute (g) based on 100 ml of solvent.

[2] = Dissolving the charge transporting agent in dichloroethane solution of polycarbonate resin for the charge transporting layer; type: physicochemical; conditions: 8.0% dichloroethane solution of polycarbonate resin (Iupilon Z)
Protocol: On the other hand, 1.5 parts of the p-terphenyl compound (compound No. 1) synthesized in Synthesis Example 1 was added as a charge transporting agent to 18.75 parts of a 8.0% dichloroethane solution of a polycarbonate resin (Iupilon Z, manufactured by Mitsubishi Engineering-Plastics Corporation), followed by application of an ultrasonic wave to completely dissolve the p-terphenyl compound. This solution was applied onto the above-mentioned charge generating layer with a wire bar, and dried at 110° C. under normal pressure for 30 minutes to form a charge transporting layer having a film thickness of 20 μm, thus preparing photoconductor No. 1.
Photoconductor No. 7 was prepared in the same manner as in Photoconductor Example 1 with the exception that the charge transporting agent used in Photoconductor Example 1 was changed to the same amount of the p-terphenyl compound (comparative compound No. 1) synthesized in Synthesis Comparative Example 1.
On the other hand, 0.9 part of the p-terphenyl compound (compound No. 1) synthesized in Synthesis Example 1 was added as a charge transporting agent to 11.25 parts of a 8.0% dichloroethane solution of a polycarbonate resin (Iupilon Z, manufactured by Mitsubishi Engineering-Plastics Corporation), followed by application of an ultrasonic wave to completely dissolve the p-terphenyl compound. […]

| Compound | melting point | Solubility in 1,2-Dichloroethane [1] | Solubility in Tetrahydrofuran [1] | Solubility in Toluene [1] | Solubility of charge transporting agent when preparing the photoconductor [2] |
| --- | --- | --- | --- | --- | --- |
| COc1ccc(N(c2ccccc2)c2ccc(-c3ccc(-c4ccc(N(c5ccccc5)c5ccc(OC)cc5C)cc4)cc3)cc2)c(C)c1 [Compound No. 2, N,N′-di(4-methoxy-2-methylphenyl)-N,N′-diphenyl-4,4″-diamino-p-terphenyl] | 180.8 to 183.4 °C | 3.5 g/100 ml | 18.1 g/100 ml | 9.3 g/100 ml |  |
| COc1ccc(N(c2ccc(-c3ccccc3)cc2)c2ccc(-c3ccc(-c4ccc(N(c5ccc(-c6ccccc6)cc5)c5ccc(OC)cc5C)cc4)cc3)cc2)c(C)c1 [Compound No. 3, N,N′-bis-biphenyl-4-yl-N,N′-di-4-methoxy-2-methylphenyl-4,4″-diamino-p-terphenyl] | 232.6 to 233.2 °C | 30.0 or more g/100 ml | 30.0 or more g/100 ml | 30.0 or more g/100 ml |  |
| Cc1ccc(N(c2ccc(-c3ccc(-c4ccc(N(c5ccc(C)cc5)c5ccc6c(c5)CCC6)cc4)cc3)cc2)c2ccc3c(c2)CCC3)cc1 [Compound No. 1, N,N′-bisindane-5-yl-N,N′-di-p-tolyl-4,4″-diamino-p-terphenyl] | 207.4 to 208.1 °C | 4.2 g/100 ml | 20.8 g/100 ml | 11.0 g/100 ml |  |

The next lines start with the values.

| melting point | Solubility in 1,2-Dichloroethane [1] | Solubility in Tetrahydrofuran [1] | Solubility in Toluene [1] | Solubility of charge transporting agent when preparing the photoconductor [2] | Compound |
| --- | --- | --- | --- | --- | --- |
| 232.5 to 233.5 °C | 2.3 g/100 ml | 12.4 g/100 ml | 2.2 g/100 ml | insoluble | Cc1ccc(N(c2ccc(C)cc2)c2ccc(-c3ccc(-c4ccc(N(c5ccc(C)cc5)c5ccc(C)cc5)cc4)cc3)cc2)cc1 [Comparative Compound 1, N,N,N′,N′-tetra-p-tolyl-4,4″-diamino-p-terphenyl] |
| 167.2 to 168.2 °C |  |  |  |  | Cc1ccc(N(c2ccccc2)c2ccc(-c3ccc(-c4ccc(N(c5ccccc5)c5ccc(C)cc5)cc4)cc3)cc2)cc1 [Compound No. 17, N,N′-diphenyl-N,N′-di-p-tolyl-4,4″-diamino-p-terphenyl] |
